Measured values: PubChem BioAssay AID2060906 (Molecular Pharmacology Branch, DTP, NCI, 2025)

Test system: 485176-168-R4-J1-PDC complex spheroid growth
Test: Anticancer human tumor 485176-168-R4-J1-PDC patient-derived pancreatic adenocarcinoma cell line growth inhibition [RAS]
Conditions: for IC50: curve of first compound; for viability, T/C: stronger effect = lower value
Procedure, shortened: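 Multi-cell-type spheroids: tumor cells plus HUVEC endothelial cells and mesenchymal stem cells. RAS-pathway inhibitors were combined with targeted agents, each dosed in half-log steps down from clinical Cmax, or from 10 microM when Cmax was unknown.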
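Note: spheroids exposed to compounds for seven days before readout.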
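Throughout, for viability, T/C: luminescence viability expressed relative to DMSO vehicle wells set as 100%.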

SMILES: CC(Nc1ccc2c(c1)OCCn1cc(N3C(=O)OCC3C(F)F)nc1-2)C(N)=O (centres undefined) + C#Cc1c(F)ccc2cc(O)cc(-c3ncc4c(N5CC6CCC(C5)N6)nc(OCC56CCCN5CC(F)C6)nc4c3F)c12
- IC50 (second compound 0.0316 µM): > 10000 nM
- IC50 (second compound 0.1 µM): > 10000 nM
- IC50 (second compound 0.316 µM): > 10000 nM
- IC50 (second compound 1 µM): > 10000 nM
- IC50 (second compound 3.16 µM): > 10000 nM
- IC50 (second compound 10 µM): > 10000 nM
- viability, T/C (second compound 0.0316 µM, first compound 0.0316 µM): 97.5%
- viability, T/C (second compound 0.0316 µM, first compound 0.1 µM): 86.5%
- viability, T/C (second compound 0.0316 µM, first compound 0.316 µM): 91.8%
- viability, T/C (second compound 0.0316 µM, first compound 1 µM): 83.5%
- viability, T/C (second compound 0.0316 µM, first compound 3.16 µM): 59.1%
- viability, T/C (second compound 0.0316 µM, first compound 10 µM): 65.4%
- viability, T/C (second compound 0.1 µM, first compound 0.0316 µM): 114%
- viability, T/C (second compound 0.1 µM, first compound 0.1 µM): 98.6%
- viability, T/C (second compound 0.1 µM, first compound 0.316 µM): 71.9%
- viability, T/C (second compound 0.1 µM, first compound 1 µM): 70.8%
- viability, T/C (second compound 0.1 µM, first compound 3.16 µM): 69.4%
- viability, T/C (second compound 0.1 µM, first compound 10 µM): 50%
- viability, T/C (second compound 0.316 µM, first compound 0.0316 µM): 92.5%
- viability, T/C (second compound 0.316 µM, first compound 0.1 µM): 75%
- viability, T/C (second compound 0.316 µM, first compound 0.316 µM): 88.8%
- viability, T/C (second compound 0.316 µM, first compound 1 µM): 79.4%
- viability, T/C (second compound 0.316 µM, first compound 3.16 µM): 75.3%
- viability, T/C (second compound 0.316 µM, first compound 10 µM): 54.8%
- viability, T/C (second compound 1 µM, first compound 0.0316 µM): 107%
- viability, T/C (second compound 1 µM, first compound 0.1 µM): 81.1%
- viability, T/C (second compound 1 µM, first compound 0.316 µM): 85.8%
- viability, T/C (second compound 1 µM, first compound 1 µM): 90.5%
- viability, T/C (second compound 1 µM, first compound 3.16 µM): 78%
- viability, T/C (second compound 1 µM, first compound 10 µM): 56.6%
- viability, T/C (second compound 3.16 µM, first compound 0.0316 µM): 107%
- viability, T/C (second compound 3.16 µM, first compound 0.1 µM): 94.2%
- viability, T/C (second compound 3.16 µM, first compound 0.316 µM): 85.8%
- viability, T/C (second compound 3.16 µM, first compound 1 µM): 79.9%
- viability, T/C (second compound 3.16 µM, first compound 3.16 µM): 53.4%
- viability, T/C (second compound 3.16 µM, first compound 10 µM): 56.5%
- viability, T/C (second compound 10 µM, first compound 0.0316 µM): 91.7%
- viability, T/C (second compound 10 µM, first compound 0.1 µM): 88.9%
- viability, T/C (second compound 10 µM, first compound 0.316 µM): 67.7%
- viability, T/C (second compound 10 µM, first compound 1 µM): 71.4%
- viability, T/C (second compound 10 µM, first compound 3.16 µM): 72.1%
- viability, T/C (second compound 10 µM, first compound 10 µM): 44%

SMILES: CC1(C)CCC(Nc2ncc(C(F)(F)F)c(-c3c[nH]c4c(P(C)(C)=O)c(C#N)ccc34)n2)CN1 (centres undefined) + CCn1c(-c2cc(N3CCN(C)CC3)cnc2C(C)OC)c2c3cc(ccc31)-c1csc(n1)CC(NC(=O)C1CC1C)C(=O)N1CCCC(N1)C(=O)OCC(C)(C)C2
- IC50 (second compound 0.000949 µM): > 300 nM
- IC50 (second compound 0.003 µM): > 300 nM
- IC50 (second compound 0.00949 µM): 82.5 nM
- IC50 (second compound 0.03 µM): 121 nM
- IC50 (second compound 0.0949 µM): > 300 nM
- IC50 (second compound 0.3 µM): 70 nM
- viability, T/C (second compound 0.000949 µM, first compound 0.000949 µM): 94.9%
- viability, T/C (second compound 0.000949 µM, first compound 0.003 µM): 91.1%
- viability, T/C (second compound 0.000949 µM, first compound 0.00949 µM): 93%
- viability, T/C (second compound 0.000949 µM, first compound 0.03 µM): 59.2%
- viability, T/C (second compound 0.000949 µM, first compound 0.0949 µM): 55.1%
- viability, T/C (second compound 0.000949 µM, first compound 0.3 µM): 49.3%
- viability, T/C (second compound 0.003 µM, first compound 0.000949 µM): 93.5%
- viability, T/C (second compound 0.003 µM, first compound 0.003 µM): 101%
- viability, T/C (second compound 0.003 µM, first compound 0.00949 µM): 75.3%
- viability, T/C (second compound 0.003 µM, first compound 0.03 µM): 54.5%
- viability, T/C (second compound 0.003 µM, first compound 0.0949 µM): 52%
- viability, T/C (second compound 0.003 µM, first compound 0.3 µM): 54.9%
- viability, T/C (second compound 0.00949 µM, first compound 0.000949 µM): 84.9%
- viability, T/C (second compound 0.00949 µM, first compound 0.003 µM): 96.3%
- viability, T/C (second compound 0.00949 µM, first compound 0.00949 µM): 104%
- viability, T/C (second compound 0.00949 µM, first compound 0.03 µM): 55.8%
- viability, T/C (second compound 0.00949 µM, first compound 0.0949 µM): 51.5%
- viability, T/C (second compound 0.00949 µM, first compound 0.3 µM): 46.9%
- viability, T/C (second compound 0.03 µM, first compound 0.000949 µM): 101%
- viability, T/C (second compound 0.03 µM, first compound 0.003 µM): 92.8%
- viability, T/C (second compound 0.03 µM, first compound 0.00949 µM): 76.5%
- viability, T/C (second compound 0.03 µM, first compound 0.03 µM): 64.4%
- viability, T/C (second compound 0.03 µM, first compound 0.0949 µM): 49.8%
- viability, T/C (second compound 0.03 µM, first compound 0.3 µM): 45.8%
- viability, T/C (second compound 0.0949 µM, first compound 0.000949 µM): 87.1%
- viability, T/C (second compound 0.0949 µM, first compound 0.003 µM): 76.8%
- viability, T/C (second compound 0.0949 µM, first compound 0.00949 µM): 76.2%
- viability, T/C (second compound 0.0949 µM, first compound 0.03 µM): 57.4%
- viability, T/C (second compound 0.0949 µM, first compound 0.0949 µM): 61.9%
- viability, T/C (second compound 0.0949 µM, first compound 0.3 µM): 54.8%
- viability, T/C (second compound 0.3 µM, first compound 0.000949 µM): 89.3%
- viability, T/C (second compound 0.3 µM, first compound 0.003 µM): 93.4%
- viability, T/C (second compound 0.3 µM, first compound 0.00949 µM): 70.5%
- viability, T/C (second compound 0.3 µM, first compound 0.03 µM): 57.3%
- viability, T/C (second compound 0.3 µM, first compound 0.0949 µM): 47%
- viability, T/C (second compound 0.3 µM, first compound 0.3 µM): 47.2%
